Measurements from PubChem BioAssay AID1963973 (Molecular Pharmacology Branch, DTP, NCI, 2024).

System: 883617-216-R-J1-PDC tumor spheroids, viability
Experiment: Anticancer human tumor 883617-216-R-J1-PDC patient-derived bladder carcinoma cell line growth inhibition [PI3K]
Conditions: spheroids with HUVEC and MSC; for IC50: curve of first compound; for viability, T/C: stronger effect = lower value
Source text: Combinatorial screen of targeted agents with the PI3K inhibitors inavolisib, alpelisib, duvelisib, and copanlisib in multi-cell type tumor spheroids
A high-throughput screen of multi-cell type tumor spheroids was designed to identify active combinations of targeted small molecules and PI3K pathway inhibitors. Complex spheroids include a stromal component modeled by human endothelial cells (HUVEC) and fibroblasts modeled by human mesenchymal stem cells (MSCs). The concentration ranges selected for each drug and investigational agent were based upon clinically achievable concentrations if the clinical Cmax of the agent was known.
Compounds. The drugs and investigational agents: inavolisib (NSC800729), alpelisib (NSC765974), duvelisib (NSC772469), copanlisib (NSC816437), ipatasertib (NSC767898), afuresertib (NSC778305), talazoparib (NSC767125), sapanisertib (NSC764658), selumetinib (NSC741078), tovorafenib (DAY101, NSC766906), vemurafenib (NSC761431), ravoxertinib (NSC781343), sotorasib (NSC818433), MRTX1133 (NSC 836407), abemaciclib (NSC 768073), palbociclib (NSC758247), venetoclax (NSC 766270), SY5609 (NSC837396), enzalutamide (NSC755605), and darolutamide (NSC825331), were obtained from the National Cancer Institute (NCI) Developmental Therapeutics Program Chemical Repository. The FDA-approved anticancer drug set is available from the NCI Developmental Therapeutics Program. […] The stock solutions were prepared in dimethyl sulfoxide (DMSO, Sigma-Aldrich, St. Louis, MO, cat. D2650) at 800-fold the tested concentration and stored at -70 degrees C prior to their use. All drugs and investigational agents were tested over a range starting from a high concentration at or near the clinical Cmax and decreasing in half-log increments. If the clinical Cmax for an agent had not been determined, the highest concentration tested was 10 microM.
Cell Culture. All cells were maintained in an incubator at 37 degrees C and 5% CO2 with 95% humidity. The PDC lines were cultured according to standard operating procedures established by the NCI PDMR (https://pdmr.cancer.gov/sops/default.htm). All PDCs were thawed and cultured in Matrigel-coated flasks prepared with a working solution of 1X Ham's F-12 nutrient mix, without supplementation (Invitrogen, Waltham, MA, cat. 11765054), 100 U/mL penicillin-streptomycin (Invitrogen, cat. 15140122), and 2.5% Matrigel (Corning Inc., Corning, NY, cat. 354248) for the first three passages. The 354836-022-R-J1-PDC, 475296-252-R-J1-PDC, and 997726-040-R-J2-PDC lines were cultured in 6A media, which includes advanced DMEM/F-12 (Thermo Fisher Scientific, cat. 12634028), 10 mM HEPES (Thermo Fisher Scientific, cat. 15630080), 1X GlutaMAX supplement (Thermo Fisher Scientific, cat. 35050061), 0.1 mg/mL primocin (InvivoGen, San Diego, CA, cat. ant-pm-2), 10% defined fetal bovine serum, heat inactivated (HyClone Laboratories Inc., Logan, UT, cat. SH30070.03HI), 50% L-WRN conditioned media (ATCC, cat. CRL-3276), 1.25 mM N-Acetyl-L-cysteine (Sigma-Aldrich, cat. A9165), 10 mM nicotinamide (Sigma-Aldrich, cat. N0636), 1X B-27 supplement (Thermo Fisher Scientific, cat. 17504044), 1X N-2 supplement (Thermo Fisher Scientific, cat. 17502048), and 10 microM Y-27632 dihydrochloride (Tocris Bioscience, Bristol, United Kingdom, cat. 1254). The 624824-186-R-J2-PDC line was cultured in 6C/Colon 1B media, which includes all 6A media components plus 50 ng/mL human EGF recombinant protein (Thermo Fisher Scientific, cat. PHG0311). […]

[1] = second compound 0.00316 µM, first compound 0.0316 µM
[2] = second compound 0.00316 µM, first compound 0.1 µM
[3] = second compound 0.00316 µM, first compound 0.316 µM
[4] = second compound 0.00316 µM, first compound 1 µM
[5] = second compound 0.00316 µM, first compound 3.16 µM
[6] = second compound 0.00316 µM, first compound 10 µM
[7] = second compound 0.01 µM, first compound 0.0316 µM
[8] = second compound 0.01 µM, first compound 0.1 µM
[9] = second compound 0.01 µM, first compound 0.316 µM
[10] = second compound 0.01 µM, first compound 1 µM
[11] = second compound 0.01 µM, first compound 3.16 µM
[12] = second compound 0.01 µM, first compound 10 µM
[13] = second compound 0.0316 µM, first compound 0.0316 µM
[14] = second compound 0.0316 µM, first compound 0.1 µM
[15] = second compound 0.0316 µM, first compound 0.316 µM
[16] = second compound 0.0316 µM, first compound 1 µM
[17] = second compound 0.0316 µM, first compound 3.16 µM
[18] = second compound 0.0316 µM, first compound 10 µM
[19] = second compound 0.1 µM, first compound 0.0316 µM
[20] = second compound 0.1 µM, first compound 0.1 µM
[21] = second compound 0.1 µM, first compound 0.316 µM
[22] = second compound 0.1 µM, first compound 1 µM
[23] = second compound 0.1 µM, first compound 3.16 µM
[24] = second compound 0.1 µM, first compound 10 µM
[25] = second compound 0.316 µM, first compound 0.0316 µM
[26] = second compound 0.316 µM, first compound 0.1 µM
[27] = second compound 0.316 µM, first compound 0.316 µM
[28] = second compound 0.316 µM, first compound 1 µM
[29] = second compound 0.316 µM, first compound 3.16 µM
[30] = second compound 0.316 µM, first compound 10 µM
[31] = second compound 1 µM, first compound 0.0316 µM
[32] = second compound 1 µM, first compound 0.1 µM
[33] = second compound 1 µM, first compound 0.316 µM
[34] = second compound 1 µM, first compound 1 µM
[35] = second compound 1 µM, first compound 3.16 µM
[36] = second compound 1 µM, first compound 10 µM
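Further: spheroids exposed to agents for 7 days before the viability read.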

`CC1(C)CCC(CN2CCN(c3ccc(C(=O)NS(=O)(=O)c4ccc(NCC5CCOCC5)c([N+](=O)[O-])c4)c(Oc4cnc5[nH]ccc5c4)c3)CC2)=C(c2ccc(Cl)cc2)C1` + CC(Nc1ccc2c(c1)OCCn1cc(N3C(=O)OCC3C(F)F)nc1-2)C(N)=O gave an IC50 (second compound 0.00316 µM) of 5.33 µM, an IC50 (second compound 0.01 µM) of 4.58 µM and an IC50 (second compound 0.0316 µM) of 3.77 µM. The IC50 (second compound 0.1 µM) was less than 0.0316 µM, the IC50 (second compound 0.316 µM) was less than 0.0316 µM and the IC50 (second compound 1 µM) was less than 0.0316 µM. The viability, T/C [1] was 83.5%, the viability, T/C [2] was 61.8% and the viability, T/C [3] was 97.3%. It also gave a viability, T/C [4] of 107%, a viability, T/C [5] of 90.2% and a viability, T/C [6] of 4.2%. The viability, T/C [7] was 86.6%, the viability, T/C [8] was 74.8% and the viability, T/C [9] was 87.8%. For the same compound, the viability, T/C [10] was 82.8%, the viability, T/C [11] was 71.8% and the viability, T/C [12] was 3.91%. It also gave a viability, T/C [13] of 66.7%, a viability, T/C [14] of 51.6% and a viability, T/C [15] of 65.5%. The viability, T/C [16] was 65.4%, the viability, T/C [17] was 57.8% and the viability, T/C [18] was 5.24%. For the same compound, the viability, T/C [19] was 29.4%, the viability, T/C [20] was 36.4% and the viability, T/C [21] was 41.5%. For the same compound, the viability, T/C [22] was 45.8%, the viability, T/C [23] was 47.5% and the viability, T/C [24] was 2.96%. It also gave a viability, T/C [25] of 21.2%, a viability, T/C [26] of 22.1% and a viability, T/C [27] of 22.1%. The viability, T/C [28] was 25.4%, the viability, T/C [29] was 26.4% and the viability, T/C [30] was 2.64%. It also gave a viability, T/C [31] of 17.2%, a viability, T/C [32] of 13% and a viability, T/C [33] of 15.3%. For the same compound, the viability, T/C [34] was 14.3%, the viability, T/C [35] was 21.6% and the viability, T/C [36] was 1.47%.
`C[C@@H](NC(=O)c1ncnc(N)c1Cl)c1ncc(C(=O)Nc2cc(C(F)(F)F)c(Cl)cn2)s1` + CC(Nc1ccc2c(c1)OCCn1cc(N3C(=O)OCC3C(F)F)nc1-2)C(N)=O was tested, and the IC50 (second compound 0.00316 µM) was greater than 10 µM, the IC50 (second compound 0.01 µM) was greater than 10 µM and the IC50 (second compound 0.0316 µM) was 6.34 µM. The IC50 (second compound 0.1 µM) was 0.366 µM, the IC50 (second compound 0.316 µM) was less than 0.0316 µM and the IC50 (second compound 1 µM) was less than 0.0316 µM. For the same compound, the viability, T/C [1] was 86.3%, the viability, T/C [2] was 78.3% and the viability, T/C [3] was 88.9%. For the same compound, the viability, T/C [4] was 99.8%, the viability, T/C [5] was 80% and the viability, T/C [6] was 70.8%. For the same compound, the viability, T/C [7] was 81.2%, the viability, T/C [8] was 89.4% and the viability, T/C [9] was 74.6%. The viability, T/C [10] was 86.2%, the viability, T/C [11] was 70.6% and the viability, T/C [12] was 63.6%. The viability, T/C [13] was 72.2%, the viability, T/C [14] was 73.6% and the viability, T/C [15] was 65.3%. For the same compound, the viability, T/C [16] was 58.8%, the viability, T/C [17] was 55.4% and the viability, T/C [18] was 47.1%. For the same compound, the viability, T/C [19] was 42.4%, the viability, T/C [20] was 49.2% and the viability, T/C [21] was 61.8%. For the same compound, the viability, T/C [22] was 42.3%, the viability, T/C [23] was 36.7% and the viability, T/C [24] was 32.3%. The viability, T/C [25] was 26.1%, the viability, T/C [26] was 22.4% and the viability, T/C [27] was 26.1%. It also gave a viability, T/C [28] of 27.4%, a viability, T/C [29] of 27.7% and a viability, T/C [30] of 17.9%. It also gave a viability, T/C [31] of 18.2%, a viability, T/C [32] of 15.2% and a viability, T/C [33] of 16.3%. The viability, T/C [34] was 16.9%, the viability, T/C [35] was 16.6% and the viability, T/C [36] was 12.5%.
